The results in this text go back to patent publication US20220016125A1, “RIBOFLAVIN FOR TREATING COLLAGENOUS TISSUES IN THE DISEASES OF JOINTS, PARTICULARLY OF INVERTEBRAL DISCS” (Albert-Ludwigs-Universitat Freiburg, priority 2018, published 2022).

In experiment [1] the test system is collagen fibers in the transition zone between the annulus fibrosus and nucleus pulposus. As to the kind of experiment: Riboflavin/UV crosslinking of collagen fibers in bovine intervertebral disc cryosections, autofluorescence microscopy. As to conditions: 10 bovine samples, 0.6 mm slices; 0.1 mL of 0.25% riboflavin solution twice at 30 s interval; UV 370 nm, 9 mW/cm^2, two minutes. The protocol:
(§1) Five freshly frozen bovine intervertebral discs and two freshly frozen human intervertebral discs from the Anatomy department of the University of Freiburg were used for the experiments (see FIG. 6).
(§2) The intervertebral discs were thinly cut into 0.6 mm thick slices using a cryomicrotome and placed on glass plates (see FIG. 7). The thin discs arise from the transition zone between the annulus fibrosus and nucleus pulposus, which is indicated by a rectangle in FIG. 6.
(§3) A total of 10 bovine and 10 human samples were prepared and examined for the experiments.
(§4) Before treatment with riboflavin, the samples were imaged by autofluorescence microscopy to visualize the collagen fibers. The architecture, orientation and crosslinking density of the collagen fibers in the samples before treatment are shown in FIGS. 9 a) and 10 a).
(§5) To crosslink the collagen fibers, 0.1 mL of a riboflavin solution at a concentration of 0.25% was administered twice at a time interval of 30 seconds. The sample was then irradiated with UV light.
(§6) A UV radiation source with an average wavelength of 370 nm (365-375 nm) was used to irradiate the samples. […]
(§7) After the treatment, the collagen fibers were reimaged using autofluorescence microscopy in order to visualize the identical sample area. This allows changes in the crosslinking density of the collagen fibers to be detected.

The test system is the same in experiment [2]. As to the kind of experiment: Riboflavin/UV crosslinking of collagen fibers in human intervertebral disc cryosections, autofluorescence microscopy. As to conditions: 10 human samples, 0.6 mm slices; 0.1 mL of 0.25% riboflavin solution twice at 30 s interval; UV 370 nm, 9 mW/cm^2, two minutes. The protocol: as §1, §2, §3, §4, §5, §6, §7
Experiment [3] has as its system bovine intervertebral discs. As to the kind of experiment: Young's modulus of fresh bovine intervertebral discs before and after UV irradiation (Biomomentum Mach-1). The settings on record: 8 mM riboflavin (riboflavin 5′-phosphate sodium salt hydrate) in PBS, 15 min soak, 365 nm UVA, 3.5 mW/cm^2, 15 minutes. The protocol:
For the characterization, Young's modulus or modulus of elasticity (Akhtar et. Al 2011) was determined locally on an established device (Biomomentum Mach-1 Biomomentum Inc.; Sim et al. 2014).
Fresh bovine tails were provided from the local meat processing plant within 2 hours of slaughter. The paravertebral structure was removed (FIG. 11).
Bovine intervertebral discs (IVDs), which are attached to the vertebral body, were isolated (FIG. 12).
In order to stabilize the samples on the device, the bovine vertebral bodies with attached intervertebral discs were fixed in PMMA bone cement (FIG. 13).
With the aid of the camera of the Biomomentum device, the surface of the bovine intervertebral discs was measured with respect to their biomechanical properties (Young's modulus) (FIG. 14).
A solution with 8 mM riboflavin (riboflavin 5′-phosphate sodium salt hydrate, Sigmaaldrich) in PBS (phosphate buffered saline solution) and pH: 7.4 water (Thermofisher) was used to soak the exposed surface of the bovine intervertebral discs for 15 minutes (dark mode). Immediately afterwards, the samples were placed in the Biomomentum device for analysis (dark mode).
After the analysis, the same sample was irradiated homogeneously with 365 nm UVA light (Opsytech Dr. Groebel-UV LED series L) at 3.5 mW/cm^2 for 15 minutes. A second analysis of the previously measured positions followed.
A total of 38 measurements were carried out on 15 healthy bovine intervertebral discs.
The percentage stiffening corresponds to the percentage increase in Young's modulus after UV irradiation, compared to the value measured before UV irradiation.

[4] abbreviates: compared to value before UV irradiation.

Molecules are shown by their SMILES.

For `Cc1cc2nc3c(=O)[nH]c(=O)nc-3n(C[C@H](O)[C@H](O)[C@H](O)CO)c2cc1C` [riboflavin, 7,8-dimethyl-10-(D-ribit-1-yl)-isoalloxazine], the “crosslinking density of the collagen fibers” value in experiment [1] is given as “visually evident increase in the crosslinking density”. For the same compound, in experiment [2], the “crosslinking density of the collagen fibers” value is “visually evident increase in the crosslinking density”. The “elastic properties (Young's modulus) after UV irradiation” value in experiment [3] (38 measurements on 15 discs) is given as “Stiffening or reinforcement of the elastic properties (Young's modulus) was observed in all samples”. Moreover, in experiment [3] (setting [4]), the “maximum stiffening (percentage increase in Young's modulus after UV irradiation)” value is reported as 348% and the “minimum stiffening or reinforcement (percentage increase in Young's modulus after UV irradiation)” value was 52%.
